Source: DBAASP
≈ marks a conversion by molar mass, not a printed value. Where “and” joins values, the source holds several entries; their conditions need not be identical. Identical values can stand only once. Values belong to the compound of their own block, whether it stands above or below them.

Columns and labels:
Test in all cases: ≥ marks a high value that may be exact or a test limit, other limits are often not marked, values filed in µg/mL are converted to µM
[1] = system: Staphylococcus aureus Cowan 1
[2] = system: Escherichia coli ATCC 25922
[3] = system: Candida albicans ATCC 10231
[4] = system: Yersinia pseudotuberculosis YPIII
Bacillus megaterium Bm11 = system: Bacillus megaterium Bm11
Staphylococcus capitis 1 = system: Staphylococcus capitis 1
[5] = system: Staphylococcus aureus ATCC 25923
[6] = system: Bacillus subtilis ATCC 6633
[7] = system: Candida albicans ATCC 20032
[8] = system: Saccharomyces cerevisiae IFO 1850
[9] = system: Escherichia coli ATCC 10536
[10] = system: Escherichia coli ATCC 25726
[11] = system: Acinetobacter baumannii NM8
[12] = system: Candida albicans ATCC 90028
[13] = system: Acinetobacter baumannii NM35
[14] = system: Staphylococcus epidermidis RP62A
[15] = system: Klebsiella pneumoniae ATCC 700603
[16] = system: Stenotrophomonas maltophilia B32/4
[17] = system: Staphylococcus epidermidis RP62A/1
[18] = system: Pseudomonas aeruginosa ATCC 27853
[19] = system: Staphylococcus aureus CCARM 3090
[20] = system: Staphylococcus aureus CCARM 3108
[21] = system: Escherichia coli CCARM 1238
[22] = system: Staphylococcus aureus CCARM 3126
[23] = system: Escherichia coli KCTC 1682
[24] = system: Staphylococcus aureus KCTC 1621
[25] = system: Staphylococcus aureus CCARM 3114
[26] = system: Bacillus subtilis KCTC 1918
[27] = system: Candida albicans CCARM 14001
[28] = system: Salmonella typhimurium CCARM 8007
[29] = system: Salmonella typhimurium CCARM 8013
[30] = system: Candida albicans CCARM 14007
[31] = system: Candida albicans ATCC 64550
[32] = system: Listeria monocytogenes KCTC 3710
[33] = system: Salmonella typhimurium CCARM 8009
[34] = system: Staphylococcus aureus CCARM 3089
[35] = system: Salmonella typhimurium KCTC 1926
[36] = system: Pseudomonas aeruginosa KCTC 1637
[37] = system: Escherichia coli CCARM 1229
[38] = system: Bacillus subtilis var. niger ATCC 9372
Escherichia coli K91BK = system: Escherichia coli K91BK
[39] = system: Bacillus anthracis Sterne 34F2

SMILES: CC[C@H](C)[C@H](NC(=O)CNC(=O)[C@H](CO)NC(=O)[C@H](CC(C)C)NC(=O)[C@@H](NC(=O)[C@H](CCCN=C(N)N)NC(=O)CNC(=O)[C@@H](NC(=O)[C@H](CC(C)C)NC(=O)[C@@H]1CCCN1C(=O)[C@H](CC(C)C)NC(=O)[C@H](C)N)[C@@H](C)CC)C(C)C)C(=O)N[C@@H](CC(C)C)C(N)=O [ALPLIGRVLSGIL]
- MIC [1]: ≥ 40 µM
- MIC [2]: > 40 µM
- MIC [3]: > 40 µM
- MIC [4]: ≥ 40 µM
- MIC (Bacillus megaterium Bm11): 20 µM (≈ 26.4 µg/mL)
- MIC (Staphylococcus capitis 1): ≥ 40 µM

SMILES: NCCCC[C@H](NC(=O)[C@H](Cc1c[nH]c2ccccc12)NC(=O)[C@H](CCCCN)NC(=O)[C@H](Cc1c[nH]c2ccccc12)NC(=O)[C@H](CCCCN)NC(=O)[C@H](Cc1c[nH]c2ccccc12)NC(=O)[C@@H](N)CCCCN)C(=O)N[C@@H](Cc1c[nH]c2ccccc12)C(N)=O [KWKWKWKW]
- MIC [19]: 12.5 µM (≈ 15.9 µg/mL)
- MIC [20]: 12.5 µM (≈ 15.9 µg/mL)
- MIC [21]: 12.5 µM (≈ 15.9 µg/mL)
- MIC [22]: 12.5 µM (≈ 15.9 µg/mL)
- MIC [23]: 6.25 µM and 12.5 µM
- MIC [24]: 6.25 µM and 12.5 µM
- MIC [25]: 12.5 µM (≈ 15.9 µg/mL)
- MIC [26]: 6.25 µM and 12.5 µM
- MIC [27]: ≥ 32 µM
- MIC [28]: 12.5 µM (≈ 15.9 µg/mL)
- MIC [29]: 6.25 µM and 12.5 µM
- MIC [30]: ≥ 32 µM
- MIC [31]: ≥ 50 µM
- MIC [32]: 3.12 µM (≈ 3.98 µg/mL)
- MIC [33]: 6.25 µM and 12.5 µM
- MIC [34]: 12.5 µM (≈ 15.9 µg/mL)
- MIC [35]: 1.56 µM (≈ 1.99 µg/mL)
- MIC [36]: 3.12 µM (≈ 3.98 µg/mL)
- MIC [37]: 6.25 µM and 12.5 µM

SMILES: CC(=O)N[C@@H](CCCN=C(N)N)C(=O)N[C@@H](CCCN=C(N)N)C(=O)N[C@@H](CCCN=C(N)N)C(=O)N[C@@H](C)C(=O)N[C@@H](C)C(=O)N[C@@H](Cc1ccccc1)C(=O)N[C@@H](C)C(=O)N[C@@H](C)C(=O)N[C@@H](Cc1c[nH]c2ccccc12)C(=O)N[C@@H](C)C(=O)N[C@@H](C)C(=O)N[C@@H](Cc1ccccc1)C(=O)N[C@@H](C)C(=O)N[C@@H](C)C(=O)N[C@@H](CCCN=C(N)N)C(=O)N[C@@H](CCCN=C(N)N)C(=O)N[C@@H](CCCN=C(N)N)C(N)=O [RRRAAFAAWAAFAARRR]
- MIC [38]: ≥ 50 µM
- MIC (Escherichia coli K91BK): ≥ 100 µM
- MIC [39]: ≥ 100 µM

Next, values leading:

- MIC [5]: 1.72 µM (≈ 4.7 µg/mL)
- MIC [6]: 27.4 µM (≈ 75 µg/mL)
- MIC [2]: 3.43 µM (≈ 9.4 µg/mL)
- MIC [7]: 27.4 µM (≈ 75 µg/mL)
SMILES: CC[C@H](C)[C@H](NC(=O)CN)C(=O)NCC(=O)N[C@H](C(=O)N[C@@H](CCCCN)C(=O)N[C@@H](Cc1ccccc1)C(=O)N[C@@H](CC(C)C)C(=O)NCC(=O)NCC(=O)N[C@H](C(=O)N[C@@H](CCCCN)C(=O)N[C@H](C(=O)N[C@@H](C)C(=O)N[C@@H](CC(C)C)C(=O)N[C@@H](CCCCN)C(=O)NCC(=O)N[C@@H](C)C(=O)N[C@@H](CC(C)C)C(=O)N[C@@H](CCCCN)C(=O)N[C@@H](CCC(=O)O)C(=O)N[C@@H](CC(C)C)C(=O)N[C@@H](C)C(=O)N[C@@H](CO)C(=O)N[C@H](C(=O)N[C@@H](Cc1ccc(O)cc1)C(=O)N[C@H](C(=O)N[C@@H](CC(N)=O)C(N)=O)C(C)C)[C@@H](C)O)[C@@H](C)O)C(C)C)[C@@H](C)O [GIGTKFLGGVKTALKGALKELASTYVN]

- MIC [6]: 3.92 µM (≈ 12 µg/mL)
- MIC [8]: 3.92 µM (≈ 12 µg/mL)
- MIC [9]: 9.14 µM (≈ 28 µg/mL)
SMILES: CC(C)C[C@H](NC(=O)[C@H](CCCN=C(N)N)NC(=O)CNC(=O)CNC(=O)[C@@H](NC(=O)[C@H](CCCCN)NC(=O)[C@@H]1CCCN1C(=O)[C@H](Cc1ccccc1)NC(=O)[C@H](Cc1ccc(O)cc1)NC(=O)[C@H](CCC(N)=O)NC(=O)[C@H](CCCCN)NC(=O)CN)C(C)C)C(=O)N[C@@H](CO)C(=O)NCC(=O)N[C@@H](CCCCN)C(=O)N[C@@H](C)C(=O)N1CCC[C@H]1C(=O)N[C@@H](CC(C)C)C(=O)N[C@@H](C)C(=O)N[C@@H](C)C(=O)N[C@@H](CCCCN)C(=O)N[C@H](C(=O)N[C@@H](Cc1cnc[nH]1)C(=O)N[C@@H](CCCN=C(N)N)C(=O)N[C@@H](CCCN=C(N)N)C(=O)N[C@@H](CC(C)C)C(=O)N[C@@H](CCCCN)C(=O)N1CCC[C@H]1C(N)=O)[C@@H](C)O [GKQYFPKVGGRLSGKAPLAAKTHRRLKP]

- MIC [5]: > 250 µM
- MIC [10]: 10 µM (≈ 22.9 µg/mL)
- MIC [11]: 10 µM (≈ 22.9 µg/mL)
- MIC [12]: ≥ 40 µM
- MIC [13]: 20 µM (≈ 45.9 µg/mL)
SMILES: CC[C@H](C)[C@H](NC(=O)CNC(=O)[C@H](CCCCN)NC(=O)[C@H](CCCCN)NC(=O)[C@H](CC(C)C)NC(=O)[C@H](CO)NC(=O)CNC(=O)[C@H](CC(C)C)NC(=O)CNC(=O)[C@H](C)NC(=O)[C@H](CCCCN)NC(=O)[C@H](Cc1ccccc1)NC(=O)[C@@H](NC(=O)[C@H](CCCCN)NC(=O)[C@H](CCCCN)NC(=O)[C@H](CC(C)C)NC(=O)CN)[C@@H](C)CC)C(=O)N[C@@H](C)C(=O)N[C@@H](C)C(=O)N[C@@H](Cc1cnc[nH]1)C(=O)N[C@H](C(=O)N[C@@H](C)C(=O)N[C@@H](CO)C(N)=O)C(C)C [GLKKIFKAGLGSLKKGIAAHVAS]

- MIC [5]: 8 µM (≈ 13 µg/mL)
- MIC [10]: ≥ 64 µM
- MIC [14]: 4 µM (≈ 6.5 µg/mL)
- MIC [15]: 64 µM (≈ 104 µg/mL)
- MIC [16]: ≥ 64 µM
- MIC [11]: ≥ 64 µM
- MIC [17]: 4 µM (≈ 6.5 µg/mL)
- MIC [12]: ≥ 128 µM
- MIC [18]: 64 µM (≈ 104 µg/mL)
SMILES: CC[C@H](C)[C@H](N)C(=O)N[C@@H](CC(C)C)C(=O)NCC(=O)N[C@@H](CCCCN)C(=O)N[C@@H](CC(C)C)C(=O)N[C@@H](CC(C)C)C(=O)N[C@@H](CCCCN)C(=O)N[C@H](C(=O)N[C@@H](C)C(=O)N[C@@H](C)C(=O)NCC(=O)N[C@@H](CC(C)C)C(=O)N[C@@H](CC(C)C)C(=O)N[C@@H](CO)C(=O)N[C@@H](CC(N)=O)C(=O)N[C@@H](CC(C)C)C(N)=O)[C@@H](C)O [ILGKLLKTAAGLLSNL]
